Data published in PMC4727820 (Scientia Pharmaceutica, 2014).
Values after ≈ are worked out from the molar mass of the structure shown. Like-named read-outs stand apart in the source and are kept apart here.

What was measured:
[1] = Solubility in phosphate buffer (0.16 M); assay type: physicochemical; details: aqueous buffer, thermodynamic from solid
Procedure: Excess amounts of each salt were added to the phosphate buffer (0.5 ml) individually. The mixtures were stirred and centrifuged at 6000 rpm for 6 min. The concentrations of each of the salts in their saturated solutions were analyzed by HPLC. The pH of the solutions was held constant throughout the experiment.

[2] = In vitro skin permeation study, Franz-type diffusion cell; assay type: in vitro ADME; details: male, Wistar, rat, read-out: Kp x10^6 (permeability coefficient) (converted)
Procedure: The in vitro skin permeation study was performed by using skin from the whole dorsal area of a male Wistar rat. […] For each salt and the parent drug, the cumulative amounts permeated through the skin were plotted against time. A steady-state flux (Jss) was obtained by dividing the slope of that graph by the surface area of the diffusion cell (4.906 cm^2).
All the reagents and solvents required for the syntheses were purified by general laboratory techniques before use. The purity of the compounds and completion of the reactions were monitored by thin layer chromatography (TLC) on silica gel plates (60 F254; Merck), visualized with ultraviolet light or iodine vapors. […] Melting points were determined using a Veego make silicon oil bath-type melting point apparatus and are uncorrected. The IR spectra were recorded using the KBr disc method in cm^−1 on a Bruker FTIR, Model 8300. The PMR spectra were recorded in CDCl3 on a Bruker 400 MHz spectrometer (chemical shifts in δ ppm, coupling constant J in Hz). λmax was determined on the Shimadzu 1800 UV spectrophotometer. The mass of the compounds was determined by LC-MS using electron impact as the source of ionization. DSC was performed on the Shimadzu DSC-60 model with the thermal analyser TA 60WS. The scanning electron microscope (SEM) model ESEM-EDAX XL-30, Philips (Netherlands) was used for the study of surface morphology. In vitro skin permeation studies were conducted using a Franz-type diffusion cell using skin from the whole dorsal area of a male Wistar rat (200 ± 10 g). Animal experiments were performed with the approval of the institutional animal ethical committee (MSU/PHARM/IAEC/2011/14) in accordance with Laboratory Animal Welfare guidelines.
In vitro skin permeation studies were performed by using skin from the whole dorsal area of a male Wistar rat in a Franz-type diffusion cell. Skin specimens were rehydrated before being mounted in the diffusion cell. The receptor medium (0.05 M phosphate buffer saline solution of pH 7.4) was stirred and kept at 37±1°C throughout the study.
The permeability coefficients (Kp) for the steady-state delivery were obtained by dividing the steady-state flux (Jss) by the solubilities of the compounds in the corresponding vehicle. The receiver medium (0.05 M phosphate buffer saline solution of pH 7.4) was stirred and kept at 37±1°C throughout the study. The compounds were applied as solutions in the phosphate buffer of pH 5.0 or 7.4. At specified time intervals, aliquots (0.5 ml) were withdrawn from the receiver compartment and replaced with fresh buffer. The drug concentrations were analyzed by HPLC.

[3] = cited from earlier work

SMILES	solubility ([1]; pH 5.0, room temperature)	solubility ([1]; pH 7.4, room temperature)	Papp ([2]; pH 5)	Papp ([2]; pH 7.4)	half-life [3]
O=C([O-])Cc1ccc(-c2ccccc2)cc1.[Na+] [1a]	14.2 ± 0.31 mM	17.1 ± 0.21 mM	0.0333 ×10⁻⁶ cm/s	0.0667 ×10⁻⁶ cm/s	
NCCO.O=C(O)Cc1ccc(-c2ccccc2)cc1 [1b]	28.96 ± 0.28 mM	24.1 ± 0.34 mM	0.0222 ×10⁻⁶ cm/s	0.178 ×10⁻⁶ cm/s	
O=C(O)Cc1ccc(-c2ccccc2)cc1 [compound 1, reference compound]	0.57 ± 0.14 mM (≈ 121 µg/mL)	54.08 ± 0.14 mM (≈ 11500 µg/mL)	0.208 ×10⁻⁶ cm/s	0.00833 ×10⁻⁶ cm/s	> 10 h
